How the values were obtained:
MCF-7 = assay: Cytotoxicity assay using propidium iodide (PI); assay type: cell-based, human
Description: (§1) The propidium iodide fluorescence assay (PI) was carried out according to the procedure mentioned in Anticancer Drugs, 1995, 6, 522-32. The assay was developed to characterize the in vitro growth of human tumor cell lines as well as to test the cytotoxic activity of the compounds. Propidium iodide (PI) was used as a dye, which penetrates only damaged cellular membranes. Intercalation complexes are formed by PI with double-stranded DNA, which effect an amplification of the fluorescence. After freezing the cells at −20° C. for 24 h, PI had access to total DNA leading to total cell population counts. Background readings were obtained from cell-free wells containing media and propidium iodide. The human breast cancer cell lines (i.e. […] Control wells were treated with vehicle (DMSO). At the end of the incubation periods, the plates were assayed using PI cytotoxicity assay protocol. Percent cytoxicity was calculated at various drug concentrations and from the graph plotted the IC50 values were determined.

MDA-MB-231 [1] = assay: Cytotoxicity assay using propidium iodide (PI); assay type: cell-based, human
Description: as §1

MDA-MB-468 = assay: Cytotoxicity assay using propidium iodide (PI); assay type: cell-based, human
Description: as §1

[2] = test system: all the breast cancer cell lines; assay: PI assay, summary over the breast cancer cell line panel; assay type: cell-based; conditions: Homo sapiens; nine breast cancer cell lines of Table 1B; read-out: IC50 range over all the breast cancer cell lines
Description: as §1

[3] = test system: MDA-MB-231, MDA-MB-468 and MCF-7 cell lines; assay: Clonogenic assay or colony forming assay; assay type: cell-based, human; conditions: IC10, IC30, IC50 for 48 h, then 14 days drug-free
Description: MDA-MB-231, MDA-MB-468 and MCF-7 cell lines were seeded in RPMI 1460 with 10% FCS, at a density of 1500 cells/well in six well plates. […] The medium was removed at the end of the treatment and incubated in fresh medium (without drug) for 14 days. After 14 days the medium was aspirated and colonies were fixed with methanol and acetic acid mixture in the proportion of 2:1, rinsed with water and the fixation procedure was repeated. The plates were dried and colonies stained with 0.1% crystal violet for 5 min. The wells were finally rinsed with water and dried.

MDA-MB-231 [4] = assay: Cell cycle progression and apoptosis by flow cytometry (sub-G1); assay type: cell-based, human; conditions: for % Apoptosis: 4.5 μM
Description: Time dependent effect of Compound A on cell cycle progression and apoptosis was evaluated in two breast cancer cell lines. The asynchronous human breast cancer cell lines MCF-7 (Her low, ER+, PR+, BRCA+/−allelic loss) and MDA-MB-231 cells were seeded in […] tissue culture flask at a density of 0.5×10^6 cells per flask in RPMI 1460 with 10% FCS. After 24 h, cells were treated with 4.5 μM of Compound A for 0, 24, 48 and 72 h. Both detached and adherent cells were harvested (trypsinised) at different time points as mentioned in Table 3. After washing in phosphate buffered saline (PBS), cells were fixed in ice-cold 70% ethanol and stored at −20° C. until further analysis.
Before analysis, cells were washed twice with PBS to remove the fixative and re-suspended in PBS containing 50 μg/mL propidium iodide and 50 μg/mL RNaseA. After incubation at room temperature (20-35° C.) for 20 min, cells were analyzed using flow cytometry. A Becton Dickinson FACS Calibur flow cytometer (BD, USA) was used for these studies. The argon ion laser set at 488 nm was used as an excitation source. Cells with DNA content between 2n and 4n were designated as being in G1, S and G2/M phases of the cell cycle, as defined by the level of red fluorescence. […] The number of cells in each cell cycle compartment was expressed as a percentage of the total number of cells present. The results are shown in Table 3 and graphically presented in FIG. 3A (MCF-7 cell lines) and FIG. 3B (MDA-MB-231 cell lines).
Comparison of the effect of Compound A and PARP inhibitor BSI-201 (Iniparib developed by Sanofi-Aventis. BSI-201 is prepared in-house) on cell cycle progression and apoptosis was evaluated in two TNBC cell lines. The asynchronous human TNBC cell lines MDA-MB-231 and MDA-MB-468 were seeded in […] tissue culture flask at a density of 0.5×10^6 cells per flask in RPMI 1460 with 10% FCS. After 24 h, cells were treated either with 1.5 and 3.0 μM of Compound A or 50 μM of PARP inhibitor BSI-201 for 72 h. After the incubation cells were harvested (trypsinised) and processed as given in example 6.

CDK4 = assay: Western blot of cell cycle proteins in MDA-MB-231; assay type: cell-based, human; conditions: 1.5 μM and 5 μM, 24 h
Description: (§2) Correlation of PARP activity and cell cycle proteins cyclin D1, total Rb and pRb 780 were studied in two TNBC cell lines viz. MDA-MB-468 and MDA-MB-231. MDA-MB-231 and MDA-MB-468 cells were seeded in RPMI 1460 medium with 10% FCS in […] tissue culture flask and incubated for 24 h. These cells were treated at 1.5 μM and 5 μM Compound A for 24 h. The cells were harvested (trypsinised) and lysed using lysis buffer. Western blotting was carried out (Molecular Cancer […], 2007, 6, 918-925) using specific antibody to PAR, PARP, cyclin D1, CDK4 and pRb Ser 780.

cyclin D1 = assay: Western blot of cell cycle proteins in MDA-MB-231; assay type: cell-based, human; conditions: 1.5 μM and 5 μM, 24 h
Description: as §2

pRb Ser 780 = assay: Western blot of cell cycle proteins in MDA-MB-231; assay type: cell-based, human; conditions: 1.5 μM and 5 μM, 24 h
Description: as §2

PARP = assay: Western blot for PARP cleavage in MDA-MB-468; assay type: cell-based, human; conditions: 1.5 μM and 5 μM, 24 h
Description: as §2

[5] = Homo sapiens, 48 h treatment, PI assay

IC50 [2]: 300 to 1000 nM
Compound: CN1CC[C@@H](c2c(O)cc(O)c3c(=O)cc(-c4ccccc4Cl)oc23)[C@@H]1CO.Cl [Compound A, (+)-trans-2-(2-Chloro-phenyl)-5,7-dihydroxy-8-(2-hydroxymethyl-1-methyl-pyrrolidin-3-yl)-chromen-4-one hydrochloride]
IC50 (MCF-7; Homo sapiens, MCF7, PI assay): 1000 nM | IC10 (MCF-7; determined as in Example 3): 370 nM | IC30 (MCF-7; determined as in Example 3): 750 nM | IC50 (MDA-MB-231 [1]; [5]): 1000 nM | IC10 (MDA-MB-231 [1]; determined as in Example 3): 450 nM | IC30 (MDA-MB-231 [1]; determined as in Example 3): 750 nM | IC50 (MDA-MB-468; [5]): 1000 nM | IC10 (MDA-MB-468; determined as in Example 3): 250 nM | IC30 (MDA-MB-468; determined as in Example 3): 500 nM | colony forming potential [3]: inhibit the colony forming potential in a dose dependent manner | % apoptosis at 72 h (MDA-MB-231 [4]; 1.5 μM, 72 h): 27.45% | % apoptosis at 72 h (MDA-MB-231 [4]; 3 μM, 72 h): 41.53% | % Apoptosis (MDA-MB-231 [4]; 0 h): 1% | % Apoptosis (MDA-MB-231 [4]; 24 h): 45% | % Apoptosis (MDA-MB-231 [4]; 48 h): 85% | % Apoptosis (MDA-MB-231 [4]; 72 h): 85% | CDK4 level (CDK4): dose dependent decrease | cyclin D1 level (cyclin D1): dose dependent decrease | pRb level (pRb Ser 780): dose dependent decrease | PARP cleavage (PARP): PARP cleavage was prominent

Source: patent publication US20130237582A1, “PHARMACEUTICAL COMBINATION OF PACLITAXEL AND A CDK INHIBITOR” (Piramal Enterprises Limited, priority 2010, published 2013)
